Measured values from the NIST ThermoML archive (doi:10.1016/j.jct.2016.03.026).

Test: xn = mol fraction of the nth substance listed
Details: 283.15 K, Fluid (supercritical or subcritical phases), Vibrating tube method, x1 = 0.97

O=C=O [carbon dioxide] + CO
Details | mass density [kg/m3]
10450 kPa | 927.45
10475 kPa | 927.61
10500 kPa | 927.78
10525 kPa | 927.92
10550 kPa | 928.1
10575 kPa | 928.27
10600 kPa | 928.46
10625 kPa | 928.66
10650 kPa | 928.76
10675 kPa | 928.84
10700 kPa | 929
10725 kPa | 929.16
10750 kPa | 929.25
10775 kPa | 929.45
10800 kPa | 929.62
10825 kPa | 929.74
10850 kPa | 929.88
10875 kPa | 930.06
10900 kPa | 930.27
10925 kPa | 930.41
10950 kPa | 930.57
10975 kPa | 930.73
11000 kPa | 930.89
11025 kPa | 931.03
11050 kPa | 931.19
11075 kPa | 931.33
11100 kPa | 931.58
11125 kPa | 931.69
11150 kPa | 931.86
11175 kPa | 932.02
11200 kPa | 932.18
11225 kPa | 932.34
11250 kPa | 932.51
11275 kPa | 932.67
11300 kPa | 932.9
11325 kPa | 933.08
11350 kPa | 933.16
11375 kPa | 933.37
11400 kPa | 933.49
11425 kPa | 933.66
11450 kPa | 933.88
11475 kPa | 933.98
11500 kPa | 934.17
11525 kPa | 934.39
11550 kPa | 934.47
11575 kPa | 934.64
11600 kPa | 934.8
11625 kPa | 934.96
11650 kPa | 935.12
11675 kPa | 935.29
11700 kPa | 935.45
11725 kPa | 935.61
11750 kPa | 935.78
11775 kPa | 935.94
11800 kPa | 936.1
11825 kPa | 936.26
11850 kPa | 936.43
11875 kPa | 936.59
11900 kPa | 936.74
11925 kPa | 936.92
11950 kPa | 937.07
11975 kPa | 937.23
12000 kPa | 937.33
12025 kPa | 937.53
12050 kPa | 937.68
12075 kPa | 937.82
12100 kPa | 937.98
12125 kPa | 938.14
12150 kPa | 938.31
12175 kPa | 938.47
12200 kPa | 938.63
12225 kPa | 938.8
12250 kPa | 938.96
12275 kPa | 939.1
12300 kPa | 939.21
12325 kPa | 939.37
12350 kPa | 939.53
12375 kPa | 939.7
12400 kPa | 939.86
12425 kPa | 940.02
12450 kPa | 940.19
12475 kPa | 940.27
12500 kPa | 940.45
12525 kPa | 940.59
12550 kPa | 940.76
12575 kPa | 940.92
12600 kPa | 941.08
12625 kPa | 941.25
12650 kPa | 941.41
12675 kPa | 941.57
12700 kPa | 941.74
12725 kPa | 941.87
12750 kPa | 942.06
12775 kPa | 942.16
12800 kPa | 942.34
12825 kPa | 942.47
12850 kPa | 942.63
12875 kPa | 942.8
12900 kPa | 942.96
12925 kPa | 943.13
12950 kPa | 943.22
12975 kPa | 943.37
13000 kPa | 943.53
13025 kPa | 943.7
13050 kPa | 943.86
13075 kPa | 944.02
13100 kPa | 944.17
13125 kPa | 944.27
13150 kPa | 944.43
13175 kPa | 944.59
13200 kPa | 944.76
13225 kPa | 944.92
13250 kPa | 945.05
13275 kPa | 945.17
13300 kPa | 945.33
13325 kPa | 945.49
13350 kPa | 945.66
13375 kPa | 945.77
13400 kPa | 945.9
13425 kPa | 946.06
13450 kPa | 946.23
13475 kPa | 946.39
13500 kPa | 946.47
13525 kPa | 946.63
13550 kPa | 946.8
13575 kPa | 946.94
13600 kPa | 947.04
13625 kPa | 947.2
13650 kPa | 947.37
13675 kPa | 947.53
13700 kPa | 947.69
13725 kPa | 947.78
13750 kPa | 947.94
13775 kPa | 948.1
13800 kPa | 948.24
13825 kPa | 948.4
13850 kPa | 948.51
13875 kPa | 948.67
13900 kPa | 948.84
13925 kPa | 948.95
13950 kPa | 949.1
13975 kPa | 949.24
14000 kPa | 949.41
14025 kPa | 949.51
14050 kPa | 949.65
14075 kPa | 949.82
14100 kPa | 949.98
14125 kPa | 950.11
14150 kPa | 950.22
14175 kPa | 950.39
14200 kPa | 950.55
14225 kPa | 950.7
14250 kPa | 950.8
14275 kPa | 950.96
14300 kPa | 951.12
14325 kPa | 951.2
14350 kPa | 951.37
14375 kPa | 951.51
14400 kPa | 951.61
14425 kPa | 951.77
14450 kPa | 951.93
14475 kPa | 952.09
14500 kPa | 952.19
14525 kPa | 952.37
14550 kPa | 952.51
14575 kPa | 952.59
14600 kPa | 952.75
14625 kPa | 952.93
14650 kPa | 953.08
14675 kPa | 953.17
14700 kPa | 953.32
14725 kPa | 953.48
14750 kPa | 953.62
14775 kPa | 953.73
14800 kPa | 953.88
14825 kPa | 954.02
14850 kPa | 954.14
14875 kPa | 954.28
14900 kPa | 954.41
14925 kPa | 954.57
14950 kPa | 954.68
14975 kPa | 954.79
15000 kPa | 954.95
15025 kPa | 955.09
15050 kPa | 955.2
15075 kPa | 955.36
15100 kPa | 955.44
15125 kPa | 955.6
15150 kPa | 955.77
15175 kPa | 955.88
15200 kPa | 956.01
15225 kPa | 956.18
15250 kPa | 956.27
15275 kPa | 956.42
15300 kPa | 956.56
15325 kPa | 956.66
15350 kPa | 956.78
15375 kPa | 956.93
15400 kPa | 957.07
15425 kPa | 957.17
15450 kPa | 957.32
15475 kPa | 957.47
15500 kPa | 957.56
15525 kPa | 957.72
15550 kPa | 957.84
15575 kPa | 957.97
15600 kPa | 958.13
15625 kPa | 958.22
15650 kPa | 958.37
15675 kPa | 958.52
15700 kPa | 958.62
15725 kPa | 958.78
15750 kPa | 958.89
15775 kPa | 959.05
15800 kPa | 959.19
15825 kPa | 959.3
15850 kPa | 959.43
15875 kPa | 959.55
15900 kPa | 959.71
15925 kPa | 959.84
15950 kPa | 959.94
15975 kPa | 960.09
16000 kPa | 960.25
16025 kPa | 960.33
16050 kPa | 960.49
16075 kPa | 960.6
16100 kPa | 960.74
16125 kPa | 960.89
16150 kPa | 960.98
16175 kPa | 961.15
16200 kPa | 961.23
16225 kPa | 961.39
16250 kPa | 961.53
16275 kPa | 961.63
16300 kPa | 961.74
16325 kPa | 961.89
16350 kPa | 962.02
16375 kPa | 962.15
16400 kPa | 962.28
16425 kPa | 962.42
16450 kPa | 962.53
16475 kPa | 962.61
16500 kPa | 962.78
16525 kPa | 962.86
